This passage reports IC50 and DC50 results from patent publication US20230167118A1, “DEGRADATION OF BRUTON'S TYROSINE KINASE (BTK) BY CONJUGATION OF BTK INIDBITORS WITH E3 LIGASE LIGAND AND METHODS OF USE” (BEIGENE, LTD., priority 2020, published 2023).

Structures are written as SMILES.

One test has as its system HEK-293 cells. The test can be described thus: HEK-293 Cytotoxicity Assay (CellTiter-Glo). It counts as cell-based. Particulars: Homo sapiens, HEK293, 72 h incubation, CellTiter-Glo luminescence. The gist of the method: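 Four-parameter fit of % inhibition gives IC50, from CellTiter-Glo luminescent viability read-out. Cells exposed for 72 h to an 8-point, 4-fold series at 0.2% DMSO.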
On the technique in general: In ATP-based viability assays light output follows the ATP content of the culture.

A further test concerns the target T1, BTK (Homo sapiens, UniProt Q06187).
T1 construct: High control=Cell group with added DMSO and without compound, indicating microplate readings without BTK degradation; endogenous in cells; host or cells: TMD-8 cells
The test can be described thus: Cell Degradation: BTK degradation in TMD-8 cells, HTRF assay. Particulars: 6 h treatment, IC50 (DC50) of BTK degradation. Type of test: cell-based. The gist of the method: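 BTK levels read by HTRF (665 vs 620 nm) in lysates of TMD-8 cells after 6 h compound exposure (eight doses, 6-fold steps, 0.2% DMSO). Percent degradation relative to controls; four-parameter curve fitting gave DC50, with Dmax the top degradation.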
On the technique in general: In TR-FRET formats the signal depends on donor and acceptor labels being close together.

T1 sequence (Q06187 whole entry): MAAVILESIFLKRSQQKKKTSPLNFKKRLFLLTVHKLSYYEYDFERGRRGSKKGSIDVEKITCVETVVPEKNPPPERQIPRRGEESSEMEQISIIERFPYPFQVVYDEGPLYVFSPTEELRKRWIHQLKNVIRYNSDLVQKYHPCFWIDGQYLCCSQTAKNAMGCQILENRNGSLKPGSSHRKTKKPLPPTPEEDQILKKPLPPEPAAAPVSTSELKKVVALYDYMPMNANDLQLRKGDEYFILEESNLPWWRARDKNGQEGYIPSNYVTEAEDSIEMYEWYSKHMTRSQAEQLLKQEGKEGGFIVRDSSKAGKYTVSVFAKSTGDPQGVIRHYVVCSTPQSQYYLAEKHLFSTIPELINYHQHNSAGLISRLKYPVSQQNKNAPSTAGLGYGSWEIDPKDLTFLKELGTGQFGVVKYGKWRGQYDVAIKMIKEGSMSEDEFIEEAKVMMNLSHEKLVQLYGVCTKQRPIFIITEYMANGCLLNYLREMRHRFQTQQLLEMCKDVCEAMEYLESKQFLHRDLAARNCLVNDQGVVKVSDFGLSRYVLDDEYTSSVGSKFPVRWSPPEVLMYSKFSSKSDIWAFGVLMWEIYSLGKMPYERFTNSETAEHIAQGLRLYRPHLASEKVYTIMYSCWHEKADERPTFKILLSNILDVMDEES

Turning to `Cc1cc(-c2ncnc3[nH]c(-c4ccc(N5CCN(CC6CCN(c7ccc(N8CCC(=O)NC8=O)c(F)c7)CC6)CC5)cc4)cc23)ccc1[C@@H](C)NC(=O)c1nc(C(C)(C)C)no1` [Example 111, (R)-3-(tert-butyl)-N-(1-(4-(6-(4-(4-((1-(4-(2,4-dioxotetrahydropyrimidin-1(2H)-yl)-3-fluorophenyl)piperidin-4-yl)methyl)piperazin-1-yl)phenyl)-7H-pyrrolo[2,3-d]pyrimidin-4-yl)-2-methylpheyl)ethyl)-1,2,4-oxadiazole-5-carboxamide], the IC50 (commonly the concentration that inhibits the measured activity by half) with HEK-293 cells is above 10000 nM. Further, it took 2.3 nM to reach half-maximal degradation on BTK (DC50).

As to `Cc1cc(-c2ncnc3[nH]c(-c4ccc(N5CCN(CC6CCN(c7ccc(N8CCC(=O)NC8=O)c(C)c7)CC6)CC5)c(C)c4)nc23)ccc1[C@@H](C)NC(=O)c1nc(C(C)(C)C)no1` [Example 112, (R)-3-(tert-butyl)-N-(1-(4-(8-(4-(4-((1-(4-(2,4-dioxotetrahydropyrimidin-1(2H)-yl)-3-methylphenyl)piperidin-4-yl)methyl)piperazin-1-yl)-3-methylphenyl)-9H-purin-6-yl)-2-methylphenyl)ethyl)-1,2,4-oxadiazole-5-carboxamide], the concentration for half-maximal inhibition (IC50) with HEK-293 cells is above 10000 nM. The DC50 (in general, the concentration at which degradation of the target reaches its halfway point) on BTK was 0.76 nM.

In turn, `COc1cc(-c2nc3c(-c4ccc([C@@H](C)NC(=O)c5nc(C(C)(C)C)no5)c(C)c4)ncnc3[nH]2)ccc1N1CCN(CC2CCN(c3ccc(N4CCC(=O)NC4=O)c(C)c3)CC2)CC1` [Example 113, (R)-3-(tert-butyl)-N-(1-(4-(8-(4-(4-((1-(4-(2,4-dioxotetrahydropyrimidin-1(2H)-yl)-3-methylphenyl)piperidin-4-yl)methyl)piperazin-1-yl)-3-methoxyphenyl)-9H-purin-6-yl)-2-methylphenyl)ethyl)-1,2,4-oxadiazole-5-carboxamide] came in with an IC50 in the test with HEK-293 cells above 10000 nM. The DC50 at BTK came to 0.97 nM.

Take `Cc1cc(N2CCN(CC3CCN(c4ccc(N5CCC(=O)NC5=O)c(C)c4)CC3)CC2)ccc1-c1nc2c(-c3ccc([C@@H](C)NC(=O)c4nc(C(C)(C)C)no4)c(C)c3)ncnc2[nH]1` [Example 114, (R)-3-(tert-butyl)-N-(1-(4-(8-(4-(4-((1-(4-(2,4-dioxotetrahydropyrimidin-1(2H)-yl)-3-methylphenyl)piperidin-4-yl)methyl)piperazin-1-yl)-2-methylphenyl)-9H-purin-6-yl)-2-methylphenyl)ethyl)-1,2,4-oxadiazole-5-carboxamide]: in the test on HEK-293 cells, the IC50 was above 10000 nM. Also, on BTK, the DC50 amounted to 1.68 nM.

As to `Cc1c([C@@H](C)NC(=O)c2noc(C(C)(C)C)n2)ccc(-c2ncnc3[nH]c(-c4ccc(N5CCN(CC6CCN(c7ccc(N8CCC(=O)NC8=O)cc7)CC6)CC5)cc4)cc23)c1F` [Example 115, (R)-5-(tert-butyl)-N-(1-(4-(6-(4-(4-((1-(4-(2,4-dioxotetrahydropyrimidin-1(2H)-yl)phenyl)piperidin-4-yl)methyl)piperazin-1-yl)phenyl)-7H-pyrrolo[2,3-d]pyrimidin-4-yl)-3-fluoro-2-methylphenyl)ethyl)-1,2,4-oxadiazole-3-carboxamide], in the test on HEK-293 cells, the IC50 is above 10000 nM. This molecule gave a DC50 at BTK of 1.83 nM.

The molecule `Cc1cc(-c2ncnc3[nH]c(-c4cccc(N5CCN(CC6CCN(c7ccc(N8CCC(=O)NC8=O)cc7)CC6)CC5)c4)cc23)ccc1[C@@H](C)NC(=O)c1nc(C(C)(C)C)no1` [Example 116, (R)-3-(tert-butyl)-N-(1-(4-(6-(3-(4-((1-(4-(2,4-dioxotetrahydropyrimidin-1(2H)-yl)phenyl)piperidin-4-yl)methyl)piperazin-1-yl)phenyl)-7H-pyrrolo[2,3-d]pyrimidin-4-yl)-2-methylphenyl)ethyl)-1,2,4-oxadiazole-5-carboxamide] displayed an IC50 with HEK-293 cells above 10000 nM. For the same molecule, on BTK, it took 2.28 nM to reach half-maximal degradation (DC50).

Regarding `Cc1cc(-c2ncnc3[nH]c(-c4ccc(N5CCN(CC6CCN(c7ccc(N8CCC(=O)NC8=O)cc7)CC6)CC5)nc4)cc23)ccc1[C@@H](C)NC(=O)c1cc(C(C)(C)C)on1` [Example 117, (R)-5-(tert-butyl)-N-(1-(4-(6-(6-(4-((1-(4-(2,4-dioxotetrahydropyrimidin-1(2H)-yl)phenyl)piperidin-4-yl)methyl)piperazin-1-yl)pyridin-3-yl)-7H-pyrrolo[2,3-d]pyrimidin-4-yl)-2-methylphenyl)ethyl)isoxazole-3-carboxamide], the IC50 in the test with HEK-293 cells was above 10000 nM. This molecule also registered a DC50 on BTK of 3.72 nM.

`C[C@@H](NC(=O)c1noc(C(C)(C)C)n1)c1ccc(-c2ncnc3[nH]c(-c4ccc(N5CCN(CC6CCN(c7ccc(N8CCC(=O)NC8=O)cc7)CC6)CC5)cc4)cc23)cc1CO` [Example 118, (R)-5-(tert-butyl)-N-(1-(4-(6-(4-(4-((1-(4-(2,4-dioxotetrahydropyrimidin-1(2H)-yl)phenyl)piperidin-4-yl)methyl)piperazin-1-yl)phenyl)-7H-pyrrolo[2,3-d]pyrimidin-4-yl)-2-(hydroxymethyl)phenyl)ethyl)-1,2,4-oxadiazole-3-carboxamide]: the IC50 in the test with HEK-293 cells is above 10000 nM. Besides, at BTK, the DC50 worked out at 0.5 nM.

With `Cc1cc(-c2ncnc3[nH]c(-c4ccc(N5CCN(CC6CCN(c7cccc(N8CCC(=O)NC8=O)c7)CC6)CC5)cn4)cc23)ccc1[C@@H](C)NC(=O)c1nc(C(C)(C)C)no1` [Example 119, (R)-3-(tert-butyl)-N-(1-(4-(6-(5-(4-((1-(3-(2,4-dioxotetrahydropyrimidin-1(2H)-yl)phenyl)piperidin-4-yl)methyl)piperazin-1-yl)pyridin-2-yl)-7H-pyrrolo[2,3-d]pyrimidin-4-yl)-2-methylphenyl)ethyl)-1,2,4-oxadiazole-5-carboxamide], the IC50 with HEK-293 cells was above 10000 nM. For the same molecule, the DC50 at BTK was determined as 1.2 nM.

In the test on HEK-293 cells, `Cc1nn(C2CCN(CC3CCN(c4ccc(N5CCC(=O)NC5=O)cc4)CC3)CC2)c(C)c1-c1cc2c(-c3ccc([C@@H](C)NC(=O)c4noc(C(C)(C)C)n4)c(CO)c3)ncnc2[nH]1` [Example 120, (R)-5-(tert-butyl)-N-(1-(4-(6-(1-(1-((1-(4-(2,4-dioxotetrahydropyrimidin-1(2H)-yl)phenyl)piperidin-4-yl)methyl)piperidin-4-yl)-3,5-dimethyl-1H-pyrazol-4-yl)-7H-pyrrolo[2,3-d]pyrimidin-4-yl)-2-(hydroxymethyl)phenyl)ethyl)-1,2,4-oxadiazole-3-carboxamide] came in with an IC50 above 10000 nM. The molecule further had a DC50 on BTK of 0.18 nM.

For the molecule `Cc1cc(-c2ncnc3[nH]c(-c4c(C)nn(C5CCN(CC6CCN(c7ccc(N8CCC(=O)NC8=O)cc7)CC6)CC5)c4C)cc23)ccc1[C@@H](C)NC(=O)c1cn(C(C)(C)C)nn1` [Example 121, (R)-1-(tert-butyl)-N-(1-(4-(6-(1-(1-((1-(4-(2,4-dioxotetrahydropyrimidin-1(2H)-yl)phenyl)piperidin-4-yl)methyl)piperidin-4-yl)-3,5-dimethyl-1H-pyrazol-4-yl)-7H-pyrrolo[2,3-d]pyrimidin-4-yl)-2-methylphenyl)ethyl)-1H-1,2,3-triazole-4-carboxamide], the IC50 in the test with HEK-293 cells is above 10000 nM. Besides, on BTK, the DC50 came out at 0.23 nM.
